Measurements as given in patent US5523296A, “1,3-benzodioxole and 1,2-dialkoxybenzene derivatives as ocular hypotensive agents” (Allergan, Inc., priority 1994, dated 1996).

Experiments:
[1] = test system: intraocular pressure in dog eyes; assay: intraocular pressure in eyes of dogs (pneumatonometry); type: in vivo, beagle dogs; conditions: 6 hours after administr., dog eye
Description: The assay is descibed as follows: male and female beagle dogs weighing 10-15 kg had been trained for a minimum of 2 months so that intraocular pressure could be measured without the use of restraining devices. Intraocular pressure was measured by pneumatonometry using applanation tonometers (Alcon). One minute prior to tonometry, 25 μl of proparacaine (Allergan, Irvine Calif.) was applied to minimize ocular discomfort during the procedure. Determination of the effects of the compounds of the invention on intraocular pressure involved administration of 1 to 25 μl of solution of the compound to one eye and an equal volume of vehicle to the contralateral eye as a control.
The effect of the compounds of the invention to lower intraocular pressure in dog eyes, in accordance with the above-described assay is shown in Table 1 with respect to the following compounds: […]

Swiss 3T3 cells = assay: inhibition of DNA synthesis: incorporation of tritium labeled thymidine into Swiss 3T3 cells; type: cell-based, mouse; conditions: 22 hours incubation, 5 hours pulse-labeling, CPM per μg DNA, mean of quadruplicates, vehicle 2601
Description: In addition, compounds of the invention were also found to inhibit DNA synthesis as observed in an assay where the incorporation of tritium labeled thymidine into Swiss 3T3 cells is measured. The assay is described as follows.
Swiss mouse 3T3 cells were maintained in Dulbecco's modified Eagle's medium (DMEM) low glucose and supplemented with 10% fetal bovine serum FBS), 2 mM 1-glutamine and 1% antibiotic-antimycotic 100×. The cultures were incubated in 5% CO2 in air at 37° C. Confluent cultures were trypsinized and plated in quadruplicate cultures for experiments. Cells were plated at 1×10^5 cells per 35 mm well in DMEM containing 10% FBS in 6-well cluster plates and allowed to become confluent in 3 days. The cells were then made quiescent by washing them with Hank's balanced salt solution (HBSS) and incubating them for 24 hours in DMEM with 0.5% FBS. The cultures were then refed fresh DMEM containing 0.5% FBS and various concentrations of the test compounds. All compounds were dissolved in absolute ethanol, diluted with sterile filtered normal saline and added to the medium so that the final ethanol control cultures were incubated in medium containing 0.01% or less […]. […]
Pulse-labeling of the cultures consisted of collecting the conditioned, drug-treated or control containing media, then adding 1μ Ci/ml [^3 H]-TdR and incubating the cultures in the [^3 H]-TdR containing medium for 5 hours. […] Radioactivity was measured by liquid-scintillation counting using Beckman HP cocktail. […] After centrifugation as before, an aliquot of the supernatant containing [^3 H]-TdR incorporated into DNA (S2) was assayed for radioactivity by scintillation counting.
An aliquot of the remaining S2 supernatant was assayed for quantity of DNA by the diphenylamine method. […] Absorbance of the DNA standards and samples was measured in a Beckman Biomek spectrophotometer at 600 nm wavelength.
The data was expressed as CPM ([^3 H]-TdR incorporated into DNA) per μg DNA and the mean of the quadruplicate samples was obtained for each experiment. […]

## COC(=O)CCCCc1cc2c(cc1C(O)CCc1ccccc1)OCO2 (racemic) [Compound 1, (±)-Methyl5-[6-(1-hydroxy-3-phenylpropyl)]-1,3-benzodioxol-5-yl]-pentanoate]
[1]; 0.1 %
  Change in IOP: -1.0 mm of Hg

## OCCCCCc1cc2c(cc1C(O)CCc1ccccc1)OCO2 (racemic) [Compound 2, (±)-5-[6-(1-hydroxy-3-phenylpropyl)]-1,3-benzodioxol-5yl]pentanol]
[1]; 0.1 %
  Change in IOP: -1.25 mm of Hg

## CCCCCC(O)c1cc2c(cc1CCCCCO)OCO2 (racemic) [Compound 3, (±)-5-[6-(1-hydroxy)hexyl]-1,3-benzodioxol-5-yl]-pentanol]
[1]; 0.01 %
  Change in IOP: -3.0 mm of Hg
[1]; 0.1 %
  Change in IOP: -4.2 mm of Hg

## CCCCCC(O)c1cc(OC)c(OC)cc1CCCCC(=O)O (racemic) [Compound 4, (±)-5-[2-(1-Hydroxy)hexyl-4,5-dimethoxyphenyl-]-1-pentanoic acid]
[1]; 0.1 %
  Change in IOP: -1.2 mm of Hg

## CCCCCC(O)c1cc2c(cc1CCCCC(=O)O)OCO2 (racemic) [Compound 5, (±)-5-[6-(1-hydroxy)hexyl]-1,3-benzodioxol-5-yl]-pentanoic acid]
Swiss 3T3 cells; 10^-5 M
  CPM ([3H]-TdR incorporated into DNA): 1454 CPM
Swiss 3T3 cells; 10^-6 M
  CPM ([3H]-TdR incorporated into DNA): 1598 CPM
Swiss 3T3 cells; 10^-7 M
  CPM ([3H]-TdR incorporated into DNA): 2102 CPM

## OCCCCCc1cc2c(cc1C(O)CCc1cccs1)OCO2 (racemic) [Compound 6, (±)-5-[[6-(1-hydroxy-3-(2-thienyl)propyl]-1,3-benzodioxolyl]pentanol]
[1]; 0.1 %
  Change in IOP: -1.1 mm of Hg

## O=C(O)CCCCc1cc2c(cc1C(O)CCc1cccs1)OCO2 (racemic) [Compound 7, (±)-5-[[6-(1-hydroxy-3-(2-thienyl)propyl)]-1,3-benzodioxolyl]pentanoic acid]
[1]; 0.1 %
  Change in IOP: -1.0 mm of Hg
